Experimental data published in patent publication US8192717B2, “Composition for diagnosing amyloid-related diseases” (Nagasaki University, priority 2004, dated 2012).

Assay: Radioactivity distribution in mouse body after intravenous administration of radioiodine labeled forms
Conditions: mouse, intravenous administration, mean (SD) of 3 to 5 mice
Description: Thereafter, 100 μl (0.5 to 1 μCi) of each labeled form was intravenously administered to each group consisting of three to five 5-week-old ddY male mice (25 to 30 g). 2, 10, 30, and 60 minutes after the intravenous administration, such mice were decapitated, and blood was collected. Thereafter, organs were excised, and the weight and radioactivity thereof were then measured.

| Compound | Distribution of radioactivity, Blood (2 min after administration) | Distribution of radioactivity, Blood (10 min after administration) | Distribution of radioactivity, Blood (30 min after administration) | Distribution of radioactivity, Blood (60 min after administration) | Distribution of radioactivity, Brain (2 min after administration) | Distribution of radioactivity, Brain (10 min after administration) | Distribution of radioactivity, Brain (30 min after administration) | Distribution of radioactivity, Brain (60 min after administration) | Distribution of radioactivity, Heart (2 min after administration) | Distribution of radioactivity, Heart (10 min after administration) | Distribution of radioactivity, Heart (30 min after administration) | Distribution of radioactivity, Heart (60 min after administration) | Distribution of radioactivity, Intestine (2 min after administration) | Distribution of radioactivity, Intestine (10 min after administration) | Distribution of radioactivity, Intestine (30 min after administration) | Distribution of radioactivity, Intestine (60 min after administration) | Distribution of radioactivity, Kidney (2 min after administration) | Distribution of radioactivity, Kidney (10 min after administration) | Distribution of radioactivity, Kidney (30 min after administration) | Distribution of radioactivity, Kidney (60 min after administration) | also measured |
| --- | --- | --- | --- | --- | --- | --- | --- | --- | --- | --- | --- | --- | --- | --- | --- | --- | --- | --- | --- | --- | --- |
| CNc1ccc(-c2cc(=O)c3cc([125I])ccc3o2)cc1 [[125I]Compound 10] | 1.89 (0.28) % ID/g | 1.39 (0.10) % ID/g | 1.34 (0.07) % ID/g | 1.50 (0.09) % ID/g | 4.12 (0.15) % ID/g | 3.68 (0.18) % ID/g | 1.84 (0.12) % ID/g | 1.19 (0.04) % ID/g | 4.87 (0.66) % ID/g | 2.66 (0.12) % ID/g | 1.67 (0.14) % ID/g | 1.28 (0.12) % ID/g | 3.10 (0.61) % ID/g | 7.91 (1.05) % ID/g | 12.84 (1.18) % ID/g | 21.48 (3.17) % ID/g | 8.13 (1.28) % ID/g | 5.21 (0.44) % ID/g | 3.85 (0.33) % ID/g | 3.05 (0.25) % ID/g | Distribution of radioactivity, Liver (2 min after administration): 16.28 (0.90) % ID/g; Distribution of radioactivity, Liver (10 min after administration): 25.28 (0.31) % ID/g; Distribution of radioactivity, Liver (30 min after administration): 18.61 (1.81) % ID/g; Distribution of radioactivity, Liver (60 min after administration): 15.14 (0.89) % ID/g; Distribution of radioactivity, Spleen (2 min after administration): 2.57 (1.54) % ID/g; Distribution of radioactivity, Spleen (10 min after administration): 2.31 (0.01) % ID/g; Distribution of radioactivity, Spleen (30 min after administration): 1.76 (0.23) % ID/g; Distribution of radioactivity, Spleen (60 min after administration): 1.52 (0.29) % ID/g |
| CN(C)c1ccc(-c2cc(=O)c3cc([125I])ccc3o2)cc1 [[125I]Compound 11] | 1.87 (0.18) % ID/g | 1.07 (0.08) % ID/g | 1.20 (0.15) % ID/g | 1.15 (0.16) % ID/g | 3.22 (0.15) % ID/g | 3.61 (0.60) % ID/g | 1.89 (0.21) % ID/g | 0.99 (0.10) % ID/g | 5.63 (0.80) % ID/g | 2.47 (0.14) % ID/g | 1.69 (0.06) % ID/g | 1.07 (0.17) % ID/g | 2.24 (0.24) % ID/g | 6.56 (0.83) % ID/g | 12.97 (1.15) % ID/g | 18.64 (2.05) % ID/g | 8.33 (1.47) % ID/g | 4.31 (0.28) % ID/g | 3.40 (0.31) % ID/g | 2.32 (0.45) % ID/g | Distribution of radioactivity, Liver (2 min after administration): 15.41 (0.98) % ID/g; Distribution of radioactivity, Liver (10 min after administration): 21.85 (2.14) % ID/g; Distribution of radioactivity, Liver (30 min after administration): 15.71 (0.96) % ID/g; Distribution of radioactivity, Liver (60 min after administration): 12.40 (2.38) % ID/g; Distribution of radioactivity, Spleen (2 min after administration): 2.72 (0.20) % ID/g; Distribution of radioactivity, Spleen (10 min after administration): 1.92 (0.33) % ID/g; Distribution of radioactivity, Spleen (30 min after administration): 1.58 (0.31) % ID/g; Distribution of radioactivity, Spleen (60 min after administration): 1.18 (0.17) % ID/g |
| COc1ccc(-c2cc(=O)c3cc([125I])ccc3o2)cc1 [[125I]Compound 19] | 1.87 (0.21) % ID/g | 1.19 (0.17) % ID/g | 0.40 (0.01) % ID/g | 0.23 (0.09) % ID/g | 4.00 (0.18) % ID/g | 2.36 (0.33) % ID/g | 0.51 (0.07) % ID/g | 0.17 (0.05) % ID/g | 4.98 (0.41) % ID/g | 2.25 (0.40) % ID/g | 0.84 (0.14) % ID/g | 0.47 (0.22) % ID/g | 3.52 (0.29) % ID/g | 14.39 (0.80) % ID/g | 22.51 (1.11) % ID/g | 30.05 (3.61) % ID/g | 7.99 (1.08) % ID/g | 6.30 (1.02) % ID/g | 4.51 (1.59) % ID/g | 1.46 (1.12) % ID/g | Distribution of radioactivity, Liver (2 min after administration): 8.96 (1.48) % ID/g; Distribution of radioactivity, Liver (10 min after administration): 9.01 (0.97) % ID/g; Distribution of radioactivity, Liver (30 min after administration): 3.75 (0.47) % ID/g; Distribution of radioactivity, Liver (60 min after administration): 1.88 (0.61) % ID/g; Distribution of radioactivity, Spleen (2 min after administration): 2.70 (0.08) % ID/g; Distribution of radioactivity, Spleen (10 min after administration): 1.38 (0.37) % ID/g; Distribution of radioactivity, Spleen (30 min after administration): 0.55 (0.30) % ID/g; Distribution of radioactivity, Spleen (60 min after administration): 3.67 (5.89) % ID/g |
| O=c1cc(-c2ccc(O)cc2)oc2ccc([125I])cc12 [[125I]Compound 20] | 2.77 (0.43) % ID/g | 1.58 (0.18) % ID/g | 0.66 (0.03) % ID/g | 0.20 (0.02) % ID/g | 3.31 (0.32) % ID/g | 1.90 (0.07) % ID/g | 0.52 (0.03) % ID/g | 0.08 (0.02) % ID/g | 5.51 (0.71) % ID/g | 1.60 (0.18) % ID/g | 0.53 (0.04) % ID/g | 0.12 (0.02) % ID/g | 3.12 (0.37) % ID/g | 11.26 (0.63) % ID/g | 22.01 (1.34) % ID/g | 27.28 (0.48) % ID/g | 14.79 (2.59) % ID/g | 15.11 (2.00) % ID/g | 6.45 (0.84) % ID/g | 1.66 (0.62) % ID/g | Distribution of radioactivity, Liver (2 min after administration): 9.77 (1.89) % ID/g; Distribution of radioactivity, Liver (10 min after administration): 8.24 (0.50) % ID/g; Distribution of radioactivity, Liver (30 min after administration): 6.80 (0.86) % ID/g; Distribution of radioactivity, Liver (60 min after administration): 4.78 (1.09) % ID/g; Distribution of radioactivity, Spleen (2 min after administration): 3.92 (1.18) % ID/g; Distribution of radioactivity, Spleen (10 min after administration): 1.55 (0.15) % ID/g; Distribution of radioactivity, Spleen (30 min after administration): 0.56 (0.13) % ID/g; Distribution of radioactivity, Spleen (60 min after administration): 0.17 (0.06) % ID/g |
